# Source: patent US20100143386A1, “FGFR4 Promotes Cancer Cell Resistance in Response to Chemotherapeutic Drugs” (Max-Planck-Gesellschaft zur foerderung der Wissenschaften, …, priority 2006, published 2010)
# Assays:
# [1] = system: Fgfr4 mediated downstream signalling (p-Erk); assay: FGF19 induced MAPK activation (P-ERK immunoblot) in breast cancer cell lines; format: cell-based; details: BT-474, MDA-MB-361 and ZR75-1 starved 48 h; compared to not stimulated control cells
# Method: Secondary HRP-conjugated antibodies were goat anti-mouse (Sigma, Taufkirchen, Germany) and goat anti-rabbit (Biorad, Munich, Germany).
# Cell cultures were washed with PBS and incubated at 4° C. with lysis buffer (50 mM HEPES/NaOH, pH 7.5, 150 mM NaCl, 1 mM EDTA, 10% glycerol and 1% Triton X-100) supplemented with phosphatase and protease inhibitors (10 mM sodium pyrophosphate, 1 mM PMSF, 2 mM sodium orthovanadate, 10 μg/ml aprotinin). Cellular debris was removed by centrifugation. Protein concentration measurements were performed using the Micro-BCA-Protein-Assay Kit from Pierce (Bonn, Germany). For immunoprecipitations, whole-cell lysates were combined with antibody and 30 μl of protein A- or G-sepharose slurry (GE Healthcare). The samples were incubated for 3 h on a rotation wheel at 4° C. The precipitates were washed three times with HNTG buffer (20 mM HEPES/NaOH, pH 7.5, 150 mM NaCl, 10% glycerol, 0.1% Triton X-100 and 10 mM sodium pyrophosphate) suspended in 3×SDS sample buffer, boiled for 3 min and subjected to SDS-PAGE. For Western blot analysis, proteins were transferred to nitrocellulose membranes and incubated with the appropriate antibodies. Signals were developed via an enhanced chemiluminescence detection system (ECL, Perkin Elmer, Wellesley, Mass.). Before reprobing, membranes were stripped with 65 mM Tris/HCl pH 6.8 buffer containing 2% SDS at 50° C. for 1 h.
# Bcl-xl expression = details: MCF7-FGFR4 cells, 10 μM U0126 for 6 hours and 12 hours
# Method: RNA was isolated using the RNeasy Mini Kit (Qiagen, Hilden, Germany) and reversely transcribed into cDNA using the AMV reverse transcriptase (Roche, Mannheim, Germany) and OligodT-Primer (Gibco, Germany). The RNA and cDNA concentration was measured using the NanoDrop ND1000 (PeqLab, Erlangen, Germany) system. […] PCR products were subjected to electrophoresis on a 2% agarose gel and DNA was visualized by ethidium bromide staining.
Compound,p-Erk-levels on FGF19 stimulation [1],Bcl-xl expression (semiquantitative PCR) (Bcl-xl expression)
"FGF19: specific ligand of Fgfr4, FGF-Ligands purchased from TEBU",increased,
N#CC(=C(/N)Sc1ccccc1N)/C(C#N)=C(\N)Sc1ccccc1N [U0126],,abolished
